Experimental data taken from US11673910B2, “Macrolides with modified desosamine sugars and uses thereof” (Zikani Therapeutics, Inc., priority 2017, dated 2023).
Values after ≈ are worked out from the molar mass of the structure shown.

What was measured:
Assay type in all cases: cell-based
E. coli strain MP-4 = assay: Broth dilution MIC determination (CLSI) against E. coli strain MP-4; details: Escherichia coli, MP4
Method: (§1) Minimum inhibitory concentrations (MICs) for macrolides described herein were determined for E. coli strain MP-4, K. pneumoniae strain MP-548, P. aeruginosa strain MP-3, A. baumannii strain MP-15, and S. aureus strain MP-12 using similar test procedures as published in US Pat. Pub. No. 2017/0305953. MIC data is represented as “+++” for values less than or equal to 4 mg/L, “++” for values of greater than or equal to 8 mg/L and less than 32 mg/L, and “+” for values of 32 mg/L or greater. ND indicates no data for a particular compound. CLSI standard procedures for broth dilution MIC determination were used.

[1] = system: K. pneumoniae strain MP-548; assay: Broth dilution MIC determination (CLSI) against K. pneumoniae strain MP-548; details: Klebsiella pneumoniae, MP548
Method: as §1

[2] = system: P. aeruginosa strain MP-3; assay: Broth dilution MIC determination (CLSI) against P. aeruginosa strain MP-3; details: Pseudomonas aeruginosa, MP3
Method: as §1

[3] = system: A. baumannii strain MP-15; assay: Broth dilution MIC determination (CLSI) against A. baumannii strain MP-15; details: Acinetobacter baumannii, MP15
Method: as §1

S. aureus strain MP-12 = assay: Broth dilution MIC determination (CLSI) against S. aureus strain MP-12; details: Staphylococcus aureus, MP12, strain MP-12
Method: as §1

| Structure (SMILES) | MIC (E. coli strain MP-4) | MIC [1] | MIC [2] | MIC [3] | MIC (S. aureus strain MP-12) |
| --- | --- | --- | --- | --- | --- |
| CC[C@H]1OC(=O)C(C)C(=O)[C@H](C)[C@@H](OC2OC(CNC3(C)CC3)CC(N(C)C)C2O)[C@](C)(OC)C[C@@H](C)CN[C@H](C)[C@H]2NC(=O)O[C@@]21C (some centres unmarked) [Compound 133, 3-Descladinosyl-3-oxo-6-O-methyl-N9a-desmethyl-11,12-dideoxy-12,11-(oxycarbonylimino)-6′-(1-methyl-1-cyclopropylamino) Azithromycin] | ≤ 4 µg/mL | 8 to 32 µg/mL (≈ 11.7 to 46.9 µM) | ≥ 32 µg/mL | 8 to 32 µg/mL (≈ 11.7 to 46.9 µM) | 8 to 32 µg/mL (≈ 11.7 to 46.9 µM) |
| CC[C@H]1OC(=O)C(C)C(=O)[C@H](C)[C@@H](O[C@@H]2OC(CNc3cccc(F)c3)CC(N(C)C)C2O)[C@](C)(OC)C[C@@H](C)CN[C@H](C)[C@H]2NC(=O)O[C@@]21C (some centres unmarked) [Compound 48] | 8 to 32 µg/mL (≈ 11.1 to 44.3 µM) | ≥ 32 µg/mL | ≥ 32 µg/mL | ≥ 32 µg/mL | 8 to 32 µg/mL (≈ 11.1 to 44.3 µM) |
| C#CCNCC1CC(N(C)C)C(O)[C@H](O[C@@H]2[C@@H](C)C(=O)C(C)C(=O)O[C@H](CC)[C@@]3(C)OC(=O)N[C@@H]3[C@@H](C)NC[C@H](C)C[C@@]2(C)OC)O1 (some centres unmarked) [Compound 53] | ≤ 4 µg/mL | 8 to 32 µg/mL (≈ 12 to 48 µM) | ≥ 32 µg/mL | ≥ 32 µg/mL | ≥ 32 µg/mL |
| CC[C@H]1OC(=O)[C@@]2(C)CCOC(C)(C[C@@H](C)CN[C@H](C)[C@H]3NC(=O)O[C@@]31C)[C@H](O[C@@H]1OC(CNC3CC3)CC(N(C)C)C1O)[C@@H](C)C2=O (some centres unmarked) [Compound 80] | ≤ 4 µg/mL | ≤ 4 µg/mL | 8 to 32 µg/mL (≈ 11.7 to 47 µM) | 8 to 32 µg/mL (≈ 11.7 to 47 µM) | ≤ 4 µg/mL |
| CC[C@H]1OC(=O)C(C)C(=O)[C@H](C)[C@@H](OC2OC(CNC3CC3)CC(N(C)C)C2O)[C@](C)(OC)C[C@@H](C)CN[C@H](C)[C@H]2NC(=O)O[C@@]21C (some centres unmarked) [Compound 118, 3-Descladinosyl-3-oxo-6-O-methyl-N9a-desmethyl-11,12-dideoxy-12,11-(oxycarbonylimino)-6′-cyclopropylamino Azithromycin] | ≤ 4 µg/mL | ≤ 4 µg/mL | ≥ 32 µg/mL | ≥ 32 µg/mL | 8 to 32 µg/mL (≈ 12 to 47.8 µM) |
| CC[C@H]1OC(=O)[C@@]2(C)CCO[C@](C)(C[C@@H](C)CN[C@H](C)[C@H]3NC(=O)O[C@@]31C)[C@H](O[C@@H]1O[C@H](CO)C[C@H](N(C)C)[C@H]1O)[C@@H](C)C2=O [Compound 195] | ≥ 32 µg/mL | ≥ 32 µg/mL | ≥ 32 µg/mL | ≥ 32 µg/mL | ≥ 32 µg/mL |
| CC[C@H]1OC(=O)[C@@](C)(F)C(=O)[C@H](C)[C@@H](O[C@@H]2OC(COCCO)CC(N(C)C)C2O)[C@](C)(OC)C[C@@H](C)C(=O)[C@H](C)[C@H]2NC(=O)O[C@@]21C (some centres unmarked) [Compound 103] | ≥ 32 µg/mL | ≥ 32 µg/mL | ≥ 32 µg/mL | ≥ 32 µg/mL | ≤ 4 µg/mL |
| CC[C@H]1OC(=O)[C@@]2(C)CCO[C@](C)(C[C@@H](C)CN[C@H](C)[C@H]3NC(=O)O[C@@]31C)[C@H](O[C@@H]1O[C@H](CN3CCCCC3)C[C@H](N(C)C)[C@H]1O)[C@@H](C)C2=O [Compound 199] | ≥ 32 µg/mL | ≥ 32 µg/mL | ≥ 32 µg/mL | ≥ 32 µg/mL | ≥ 32 µg/mL |
| CC[C@H]1OC(=O)C(C)C(=O)[C@H](C)[C@@H](O[C@@H]2OC(CNc3ccc(F)cc3)CC(N(C)C)C2O)[C@](C)(OC)C[C@@H](C)CN[C@H](C)[C@H]2NC(=O)O[C@@]21C (some centres unmarked) [Compound 46] | ≤ 4 µg/mL | 8 to 32 µg/mL (≈ 11.1 to 44.3 µM) | ≥ 32 µg/mL | ≥ 32 µg/mL | 8 to 32 µg/mL (≈ 11.1 to 44.3 µM) |
| CC[C@H]1OC(=O)C(C)C(=O)[C@H](C)[C@@H](OC2OC(CNC(C)(C)C)CC(N(C)C)C2O)[C@](C)(OC)C[C@@H](C)CN[C@H](C)[C@H]2NC(=O)O[C@@]21C (some centres unmarked) [Compound 110, 3-Descladinosyl-3-oxo-6-O-methyl-N9a-desmethyl-11,12-dideoxy-12,11-(oxycarbonylimino)-6′-tert-butylamino Azithromycin] | ≤ 4 µg/mL | 8 to 32 µg/mL (≈ 11.7 to 46.7 µM) | ≥ 32 µg/mL | ≥ 32 µg/mL | ≥ 32 µg/mL |
| CC[C@H]1OC(=O)C(C)C(=O)[C@H](C)[C@@H](OC2OC(CN3CCCCC34CC4)CC(N(C)C)C2O)[C@](C)(OC)C[C@@H](C)CN[C@H](C)[C@H]2NC(=O)O[C@@]21C (some centres unmarked) [Compound 135, 3-Descladinosyl-3-oxo-6-O-methyl-N9a-desmethyl-11,12-dideoxy-12,11-(oxycarbonylimino)-6′-(4″-azaspiro[2″.5″]octanyl)amino Azithromycin] | ≤ 4 µg/mL | 8 to 32 µg/mL (≈ 11.1 to 44.3 µM) | ≥ 32 µg/mL | ≤ 4 µg/mL | 8 to 32 µg/mL (≈ 11.1 to 44.3 µM) |
| CC[C@H]1OC(=O)C(C)C(=O)[C@H](C)[C@@H](O[C@@H]2OC(CN(C)Cc3ccc(F)cc3)CC(N(C)C)C2O)[C@](C)(OC)C[C@@H](C)CN[C@H](C)[C@H]2NC(=O)O[C@@]21C (some centres unmarked) [Compound 34] | 8 to 32 µg/mL (≈ 10.7 to 42.6 µM) | ≥ 32 µg/mL | ≥ 32 µg/mL | ≥ 32 µg/mL | ≥ 32 µg/mL |
| CC[C@H]1OC(=O)[C@@]2(C)CCOC(C)(C[C@@H](C)CN(C)[C@H](C)[C@H]3NC(=O)O[C@@]31C)[C@H](O[C@@H]1OC(CNC(C)C)CC(N(C)C)C1O)[C@@H](C)C2=O (some centres unmarked) [Compound 214] | ≤ 4 µg/mL | ≤ 4 µg/mL | ≥ 32 µg/mL | ≥ 32 µg/mL | ≤ 4 µg/mL |
| CC[C@H]1OC(=O)C(C)C(=O)[C@H](C)[C@@H](O[C@@H]2OC(CNCc3cncc(-n4cncn4)n3)CC(N(C)C)C2O)[C@](C)(OC)C[C@@H](C)CN[C@H](C)[C@H]2NC(=O)O[C@@]21C (some centres unmarked) [Compound 26] | ≥ 32 µg/mL | ≥ 32 µg/mL | ≥ 32 µg/mL | ≥ 32 µg/mL | ≥ 32 µg/mL |
| CC[C@H]1OC(=O)[C@@]2(C)CCOC(C)(C[C@@H](C)CN(C)[C@H](C)[C@H]3NC(=O)O[C@@]31C)[C@H](O[C@@H]1O[C@H](CNC3CC3)C[C@H](N(C)C)[C@H]1O)[C@@H](C)C2=O [Compound 208] | ≤ 4 µg/mL | ≤ 4 µg/mL | ≥ 32 µg/mL | 8 to 32 µg/mL (≈ 11.5 to 46 µM) | ≤ 4 µg/mL |

Now from value to molecule:

| MIC (E. coli strain MP-4) | MIC [1] | MIC [2] | MIC [3] | MIC (S. aureus strain MP-12) | Structure (SMILES) |
| --- | --- | --- | --- | --- | --- |
| ≤ 4 µg/mL | ≥ 32 µg/mL | ≥ 32 µg/mL | ≥ 32 µg/mL | ≥ 32 µg/mL | CC[C@H]1OC(=O)C(C)C(=O)[C@H](C)[C@@H](OC2OC(CN(C)C(C)C)CC(N(C)C)C2O)[C@](C)(OC)C[C@@H](C)CN(C)[C@H](C)[C@H]2NC(=O)O[C@@]21C (some centres unmarked) [Compound 160, 3-Desdadinosyl-3-oxo-6-O-methyl-9a-desmethyl-11,12-dideoxy-12,11-(oxycarbonylimino)-6′-isopropylmethylamino Azithromycin] |
| 8 to 32 µg/mL (≈ 12.2 to 48.7 µM) | ≥ 32 µg/mL | ≥ 32 µg/mL | ≥ 32 µg/mL | ≥ 32 µg/mL | CC[C@H]1OC(=O)C(C)C(=O)[C@H](C)[C@@H](OC2OC(C(=O)NC)CC(N(C)C)C2O)[C@](C)(OC)C[C@@H](C)CN[C@H](C)[C@H]2NC(=O)O[C@@]21C (some centres unmarked) [Compound 166, 3-Descladinosyl-3-oxo-6-O-methyl-N9a-desmethyl-11,12-dideoxy-12,11-(oxycarbonylimino)-5′-desmethyl-5′-(N-methylcarboxamido) Azithromycin] |
| 8 to 32 µg/mL (≈ 11 to 44 µM) | ≥ 32 µg/mL | ≥ 32 µg/mL | ≥ 32 µg/mL | ≥ 32 µg/mL | CC[C@H]1OC(=O)C(C)C(=O)[C@H](C)[C@@H](OC2OC(CN(C)C(=O)C(C)(C)C)CC(N(C)C)C2O)[C@](C)(OC)C[C@@H](C)CN[C@H](C)[C@H]2NC(=O)O[C@@]21C (some centres unmarked) [Compound 170, 3-Descladinosyl-3-oxo-6-O-methyl-N9a-desmethyl-11,12-dideoxy-12,11-(oxycarbonylimino)-6′-(N-methyl-N-pivaloylamino) Azithromycin] |
| ≤ 4 µg/mL | ≥ 32 µg/mL | ≥ 32 µg/mL | ≥ 32 µg/mL | ≥ 32 µg/mL | CO[C@]1(C)C[C@@H](C)CN[C@H](C)[C@H]2NC(=O)O[C@]2(C)[C@@H](C)OC(=O)C(C)C(=O)[C@H](C)[C@H]1OC1OC(CN2CCCCC2)CC(N(C)C)C1O (some centres unmarked) [Compound 149, 3-Descladinosyl-3-oxo-6-O-methyl-N9a-desmethyl-11,12-dideoxy-12,11-(oxycarbonylimino)-6′-piperidinyl-13-methyl Azithromycin] |
| ≥ 32 µg/mL | ≥ 32 µg/mL | ≥ 32 µg/mL | ≥ 32 µg/mL | ≥ 32 µg/mL | CC[C@H]1OC(=O)[C@]2(C)CC/C(=N\O)CO[C@](C)(C[C@@H](C)CN[C@H](C)[C@H]3NC(=O)O[C@@]31C)[C@H](OC1OC(C)CC(N(C)C)C1O)[C@@H](C)C2=O (some centres unmarked) [Compound 228] |
| ≥ 32 µg/mL | ≥ 32 µg/mL | ≥ 32 µg/mL | ≥ 32 µg/mL | ≥ 32 µg/mL | CC[C@H]1OC(=O)[C@@]2(C)CC/C(=N\O)CO[C@](C)(C[C@@H](C)CN[C@H](C)[C@H]3NC(=O)O[C@@]31C)[C@H](OC1OC(C)CC(N(C)C)C1O)[C@@H](C)C2=O (some centres unmarked) [Compound 227] |
| ≤ 4 µg/mL | 8 to 32 µg/mL (≈ 11.9 to 47.7 µM) | ≥ 32 µg/mL | ≥ 32 µg/mL | ≥ 32 µg/mL | CC[C@H]1OC(=O)C(C)C(=O)[C@H](C)[C@@H](O[C@@H]2O[C@H]([C@H](C)N(C)C)CC(N(C)C)[C@H]2O)[C@](C)(OC)C[C@@H](C)CN[C@H](C)[C@H]2NC(=O)O[C@@]21C (stereo partly drawn) [Compound 175, 3-Descladinosyl-3-oxo-6-O-methyl-N9a-desmethyl-11,12-dideoxy-12,11-(oxycarbonylimino)-6′-((S)-(dimethylamino)ethyl) Azithromycin] |
